The source of these data is PubChem BioAssay (NCI).

Among the test systems are OVCAR-4 ovarian; SR leukemia; HS 578T breast; MALME-3M melanoma; CCRF-CEM leukemia; IGROV1 ovarian; SF-539 CNS; SN12C renal; UACC-257 melanoma; UO-31 renal.
Test in all cases: NCI tumour cell line growth inhibition, 48 h

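Cells were grown in 96-well plates and exposed to each compound for 48 hours at five concentrations; endpoints were interpolated linearly between bracketing concentrations, or set to the highest concentration if not reached. The concentration for 50% growth inhibition is given as GI50. TGI: concentration producing complete growth inhibition.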

Consider `CC#CC(=O)N1CC[C@@H](n2c(=O)n(-c3ccc(Oc4ccccc4)cc3)c3c(N)ncnc32)C1`, for which the GI50 in the assay on OVCAR-4 ovarian is 20.4 µM; in the assay on SR leukemia, 14.3 µM; with HS 578T breast, 22.5 µM; with MALME-3M melanoma it was 18 µM; in the assay with CCRF-CEM leukemia, 26.2 µM; in the assay with IGROV1 ovarian it was 15.2 µM. In addition, the GI50 with SF-539 CNS is 25 µM; in the assay with SN12C renal, 20.8 µM; in the assay with UACC-257 melanoma it was 51.8 µM; in the assay with UO-31 renal, 10.8 µM. The TGI in the assay on OVCAR-4 ovarian was > 100 µM; in the assay on SR leukemia, > 100 µM; in the assay on HS 578T breast, > 100 µM; with MALME-3M melanoma it was > 100 µM; in the assay with CCRF-CEM leukemia it was > 100 µM; with IGROV1 ovarian it was 60.8 µM. For the same compound, the TGI with SF-539 CNS, in the assay on SN12C renal, with UACC-257 melanoma and with UO-31 renal was > 100 µM each time.
Consider `COc1cnc2c(c1)C(=O)c1c-2n(CCCNC(C)C)c(=O)c2cc([N+](=O)[O-])ccc12`, for which the GI50 with OVCAR-4 ovarian was 0.179 µM; in the assay on HS 578T breast, 0.938 µM; with MALME-3M melanoma, 0.118 µM; in the assay with CCRF-CEM leukemia, 0.029 µM; with IGROV1 ovarian it was 0.115 µM; in the assay on SF-539 CNS, 0.0519 µM. The GI50 with SN12C renal is 0.0393 µM; in the assay on UACC-257 melanoma it was 0.195 µM; in the assay on UO-31 renal, 0.0243 µM. Also, the TGI with OVCAR-4 ovarian was found to be 0.807 µM; in the assay on SR leukemia, 0.226 µM; in the assay with HS 578T breast, 3.24 µM; with MALME-3M melanoma, 0.356 µM; in the assay on CCRF-CEM leukemia, 0.658 µM; in the assay with IGROV1 ovarian, 1.43 µM. The TGI came out at 0.204 µM in the assay with SF-539 CNS, 0.438 µM in the assay with SN12C renal, 1.44 µM in the assay on UACC-257 melanoma and 0.135 µM in the assay with UO-31 renal.
Consider `Oc1c(I)cc(I)cc1CN(Cc1ccccn1)Cc1ccccn1`, for which the GI50 in the assay with OVCAR-4 ovarian is 0.658 µM; in the assay with SR leukemia, 0.476 µM; in the assay with HS 578T breast it was 2.06 µM; in the assay on MALME-3M melanoma, 1.84 µM; with CCRF-CEM leukemia, 0.385 µM; with IGROV1 ovarian it was 1.12 µM. Besides, the GI50 in the assay with SF-539 CNS was 0.855 µM; in the assay with SN12C renal, 1.23 µM; in the assay with UACC-257 melanoma it was 2.8 µM; with UO-31 renal, 0.554 µM. The TGI in the assay on OVCAR-4 ovarian was > 44.1 µM; in the assay on SR leukemia, 9.77 µM; in the assay with HS 578T breast, 16 µM; with MALME-3M melanoma, 9.2 µM; with CCRF-CEM leukemia, 30.8 µM; with IGROV1 ovarian it was 12.6 µM. Besides, the TGI in the assay on SF-539 CNS is 10 µM; in the assay on SN12C renal, 33.6 µM; in the assay with UACC-257 melanoma, 14.5 µM; in the assay on UO-31 renal, 3.07 µM.
Take `CCN(CC)CC[n+]1cc2cc(OC)c(OC)cc2c2ccc3cc4c(cc3c21)OCO4`: the GI50 in the assay with OVCAR-4 ovarian is 0.775 µM; in the assay with SR leukemia, 0.248 µM; in the assay with HS 578T breast, 0.604 µM; in the assay with MALME-3M melanoma, 1.1 µM; with CCRF-CEM leukemia it was 0.325 µM; in the assay on IGROV1 ovarian, 0.649 µM. In addition, the GI50 in the assay with SF-539 CNS was 1.12 µM; in the assay on SN12C renal, 0.309 µM; in the assay with UACC-257 melanoma it was 1.45 µM; with UO-31 renal, 2.61 µM. Besides, the TGI worked out at 4.16 µM in the assay on OVCAR-4 ovarian; 2.12 µM in the assay on SR leukemia; 5.54 µM with HS 578T breast; 2.5 µM in the assay on MALME-3M melanoma; 20.1 µM in the assay on CCRF-CEM leukemia; 2.67 µM with IGROV1 ovarian. Also, the TGI in the assay on SF-539 CNS amounted to 3.16 µM; in the assay on SN12C renal, 1.21 µM; in the assay with UACC-257 melanoma it was 3.36 µM; with UO-31 renal it was 8.6 µM.
Regarding `CC(C)(C)c1cc(-c2nc3c(F)c(F)c(F)c(F)c3[nH]2)cc(C(C)(C)C)c1O`, the GI50 in the assay with OVCAR-4 ovarian was > 100 µM; in the assay with SR leukemia, 38 µM; in the assay with HS 578T breast it was > 100 µM; in the assay on MALME-3M melanoma it was > 100 µM; in the assay with CCRF-CEM leukemia, > 100 µM; in the assay on IGROV1 ovarian, > 100 µM. Further, the GI50 in the assay on SF-539 CNS, with SN12C renal, with UACC-257 melanoma and in the assay with UO-31 renal was > 100 µM in each case. The TGI with OVCAR-4 ovarian, in the assay with SR leukemia, with HS 578T breast, in the assay on MALME-3M melanoma, in the assay on CCRF-CEM leukemia and in the assay with IGROV1 ovarian was > 100 µM in each case. The TGI in the assay on SF-539 CNS, with SN12C renal, with UACC-257 melanoma and in the assay with UO-31 renal was > 100 µM throughout.
Take `O=S(=O)(Nc1ccccn1)c1ccc(N=Nc2ccc(O)c3ncccc23)cc1`: the GI50 was 2.33 µM with OVCAR-4 ovarian; 0.647 µM in the assay on SR leukemia; 1.06 µM with HS 578T breast; 2.59 µM with MALME-3M melanoma; 1.21 µM in the assay on CCRF-CEM leukemia; 1.35 µM in the assay with IGROV1 ovarian. The GI50 was 0.54 µM in the assay with SF-539 CNS, 1.02 µM in the assay with SN12C renal, 1.39 µM in the assay with UACC-257 melanoma and 0.696 µM in the assay on UO-31 renal. Moreover, the TGI in the assay on OVCAR-4 ovarian is 12.2 µM; in the assay on SR leukemia it was 19.3 µM; in the assay on HS 578T breast it was 8.86 µM; with MALME-3M melanoma, 7.03 µM; in the assay on CCRF-CEM leukemia, > 95.2 µM; in the assay with IGROV1 ovarian, 16.5 µM. Moreover, the TGI in the assay with SF-539 CNS was 4.18 µM; in the assay on SN12C renal, > 29.8 µM; in the assay on UACC-257 melanoma it was 8.02 µM; with UO-31 renal, 3.33 µM.
With `O=C(O)CCSC(=S)Nc1ccc([N+](=O)[O-])cc1`, the TGI in the assay on OVCAR-4 ovarian is > 100 µM; in the assay on SR leukemia, 52.9 µM; with HS 578T breast, > 100 µM; with MALME-3M melanoma it was > 100 µM; with CCRF-CEM leukemia, > 68.2 µM; with IGROV1 ovarian, > 100 µM. The TGI was > 75.5 µM in the assay on SF-539 CNS, > 100 µM in the assay with SN12C renal, 55.1 µM with UACC-257 melanoma and > 100 µM with UO-31 renal.
Turning to `Cc1cc(N(CCOS(C)(=O)=O)CCOS(C)(=O)=O)ccc1C=Nc1ccc(-c2csc(-c3ccc(Br)cc3)n2)cc1`, the TGI in the assay on OVCAR-4 ovarian is 84.9 µM; in the assay on SR leukemia, > 94.3 µM; with HS 578T breast, > 97.3 µM; in the assay on MALME-3M melanoma, 67.2 µM; in the assay with CCRF-CEM leukemia, > 100 µM; in the assay on IGROV1 ovarian, 22.5 µM. Further, the TGI in the assay on SF-539 CNS is 9.64 µM; in the assay on SN12C renal, > 79.7 µM; in the assay with UACC-257 melanoma, 56.8 µM; in the assay with UO-31 renal it was 33.6 µM.
